# Reference: US20050043271A1, “Heparin-containing ophthalmic agent” (priority 2001, published 2005)
# Experiments:
# mast cells = conditions: without direct antihistamine effect; inhalative and intravenous application; cited from earlier work
# [1] = system: allergically caused conjunctival inflammation; conditions: high-dosage, topical application to the eye, animals; cited from earlier work
# [2] = tear film tearing time (fluorescein, slit lamp); assay type: in vivo; conditions: concentration of 0.1% by weight to 0.3% by weight
# Source text: A further diagnostic parameter in regard to diagnosis of the “dry eye” syndrome is the tear film tearing time which makes it possible to provide information about the quality of the tear fluid. In that case for example the tear film is dyed with fluorescein and the patient is then asked to keep the eyes open as long as possible without a blink reflex. A slit lamp is then used to establish when the tear film tears open for the first time. If the period of time is less than 10 seconds, there is the suspicion of the “dry eye” syndrome.
# [3] = system: cornea epithelium cells of rabbits; experiment: epithelium cell migration; assay type: cell-based; conditions: 0.1% by weight solution
# dry eyes = experiment: subjective feeling of patients in treatment of dry eyes; assay type: in vivo; conditions: 0.1% by weight in the composition
# Source text: Aqueous sodium hyaluronate solutions are fluids with non-Newtonian flow properties. By virtue of that physical property, aqueous sodium hyaluronate solutions are excellently well suited as slip and lubricating agents with a good cling effect and a prolonged residence time on the conjunctival and corneal epithelia, without adversely affecting visual efficiency.
substance,measurement,setting,value
heparin,"degranulation, caused by antigens, of mast cells",mast cells,inhibits degranulation
same,treatment of allergically caused conjunctival inflammation,[1],effective
hyaluronic acid,prolonging the tear film tearing time,[2],highly effective
sodium hyaluronate,epithelium cell migration,[3],increased epithelium cell migration
same,subjective feeling of the patients,dry eyes,considerably improves
